According to patent publication US20240199614A1, “MACROCYCLIC EGFR INHIBITORS FOR THE TREATMENT OF CANCER” (Theseus Pharmaceuticals, Inc., priority 2021, published 2024):
Like-named read-outs stand apart in the source and are kept apart here.

Assays:
Ba/F3 EGFR-Del19/T790M = Ba/F3 EGFR-Del19/T790M (Homo sapiens, UniProt P00533, T790M, cells depend on it, form not given); assay: Ba/F3 viability assay (CellTiter-Glo), BAF3 DT; type: cell-based; conditions: Ba/F3 EGFR-Del19/T790M cell viability
Description: (§1) The biological activity of compounds described herein were studied according to standard methods known in the art. Methods were used to study inhibition of EGFR, including mutant forms of EGFR comprising L858R, T790M, C797S, and/or Del19 mutations, or any combination thereof (e.g., L858R single, double, or triple mutants). Exemplary, non-limiting methods are described herein.
(§2) Inhibition of cell proliferation was studied using Ba/F3 viability assays, including the Promega CellTiter-Glo cell viability assay. This assay was used to study the effect of compounds described herein in the following assays: (1) Ba/F3 EGFR-Del19/T790M; (2); Ba/F3 EGFR-Del19/C797S; and (3) Ba/F3 EGFR-Del19/T790M/C797S. P-EGFR Signaling Assays

EGFR^L858R/T790M = EGFR^L858R/T790M (Homo sapiens, UniProt P00533, L858R/T790M); assay: HTRF KinEASE-TK in vitro kinase assay, KINASE LT; type: biochemical
Description: as §1
(§3) Assays using an in vitro kinase assay kit (HTRF KinEASE-TK kit) were used to study the inhibitory activity of compounds described herein with respect to EGFR mutants such as (1) EGFRL858R, (2) EGFR^L858R/T790M, and (3) EGFR^L858R/T790M/C797S.

EGFR^L858R/T790M/C797S = EGFR^L858R/T790M/C797S (Homo sapiens, UniProt P00533, C797S/L858R/T790M); assay: HTRF KinEASE-TK in vitro kinase assay, KINASE LTC; type: biochemical
Description: as §1, §3

[1] = target: Ba/F3 EGFR-Del19/T790M/C797S (Homo sapiens, UniProt P00533, T790M/C797S, cells depend on it, form not given); assay: Ba/F3 viability assay (CellTiter-Glo), BAF3 DTC; type: cell-based; conditions: Ba/F3 EGFR-Del19/T790M/C797S cell viability
Description: as §1, §2

Ba/F3 EGFR-Del19/C797S = Ba/F3 EGFR-Del19/C797S (Homo sapiens, UniProt P00533, C797S, cells depend on it, form not given); assay: Ba/F3 viability assay (CellTiter-Glo), BAF3 DC; type: cell-based; conditions: Ba/F3 EGFR-Del19/C797S cell viability
Description: as §1, §2

EGFRL858R = EGFRL858R (Homo sapiens, UniProt P00533, L858R); assay: HTRF KinEASE-TK in vitro kinase assay, KINASE L; type: biochemical; conditions: EGFR L858R kinase
Description: as §1, §3

[2] = amide bond, TBTU/Et3N, 20.0 °C
[3] = amide bond, TBTU, 20.0 °C

EGFR^L858R/T790M/C797S, sequence (P00533 25-1210 T790M/C797S/L858R): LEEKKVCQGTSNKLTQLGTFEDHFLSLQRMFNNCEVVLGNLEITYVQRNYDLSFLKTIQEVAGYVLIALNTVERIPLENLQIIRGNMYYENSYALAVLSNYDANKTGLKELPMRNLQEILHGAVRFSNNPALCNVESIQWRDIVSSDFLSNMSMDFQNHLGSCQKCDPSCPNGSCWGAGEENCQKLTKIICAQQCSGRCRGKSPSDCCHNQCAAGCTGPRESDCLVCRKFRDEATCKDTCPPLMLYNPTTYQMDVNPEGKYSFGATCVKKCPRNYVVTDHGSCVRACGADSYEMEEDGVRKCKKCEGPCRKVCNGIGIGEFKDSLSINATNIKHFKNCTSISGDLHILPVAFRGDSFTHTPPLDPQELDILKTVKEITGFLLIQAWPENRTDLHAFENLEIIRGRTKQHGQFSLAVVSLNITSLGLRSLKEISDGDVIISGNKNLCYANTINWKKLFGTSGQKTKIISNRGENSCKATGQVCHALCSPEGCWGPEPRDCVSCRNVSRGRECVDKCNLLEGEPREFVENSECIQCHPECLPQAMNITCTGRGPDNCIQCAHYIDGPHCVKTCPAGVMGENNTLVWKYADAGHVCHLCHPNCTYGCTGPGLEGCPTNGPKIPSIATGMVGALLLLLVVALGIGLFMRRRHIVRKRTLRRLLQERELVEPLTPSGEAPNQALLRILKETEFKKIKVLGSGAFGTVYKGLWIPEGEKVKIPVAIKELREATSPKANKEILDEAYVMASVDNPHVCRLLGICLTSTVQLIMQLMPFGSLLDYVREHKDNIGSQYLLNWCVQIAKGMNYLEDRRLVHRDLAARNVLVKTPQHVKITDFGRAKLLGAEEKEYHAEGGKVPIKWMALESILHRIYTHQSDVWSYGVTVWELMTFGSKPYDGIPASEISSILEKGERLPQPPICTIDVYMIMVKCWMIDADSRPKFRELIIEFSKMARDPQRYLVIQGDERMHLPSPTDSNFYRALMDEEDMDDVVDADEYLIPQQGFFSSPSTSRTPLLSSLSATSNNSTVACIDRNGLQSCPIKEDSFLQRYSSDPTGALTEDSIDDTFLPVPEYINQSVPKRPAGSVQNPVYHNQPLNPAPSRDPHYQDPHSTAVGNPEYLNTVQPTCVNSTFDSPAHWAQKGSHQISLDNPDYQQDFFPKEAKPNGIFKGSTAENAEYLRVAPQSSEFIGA
EGFRL858R, sequence (P00533 25-1210 L858R): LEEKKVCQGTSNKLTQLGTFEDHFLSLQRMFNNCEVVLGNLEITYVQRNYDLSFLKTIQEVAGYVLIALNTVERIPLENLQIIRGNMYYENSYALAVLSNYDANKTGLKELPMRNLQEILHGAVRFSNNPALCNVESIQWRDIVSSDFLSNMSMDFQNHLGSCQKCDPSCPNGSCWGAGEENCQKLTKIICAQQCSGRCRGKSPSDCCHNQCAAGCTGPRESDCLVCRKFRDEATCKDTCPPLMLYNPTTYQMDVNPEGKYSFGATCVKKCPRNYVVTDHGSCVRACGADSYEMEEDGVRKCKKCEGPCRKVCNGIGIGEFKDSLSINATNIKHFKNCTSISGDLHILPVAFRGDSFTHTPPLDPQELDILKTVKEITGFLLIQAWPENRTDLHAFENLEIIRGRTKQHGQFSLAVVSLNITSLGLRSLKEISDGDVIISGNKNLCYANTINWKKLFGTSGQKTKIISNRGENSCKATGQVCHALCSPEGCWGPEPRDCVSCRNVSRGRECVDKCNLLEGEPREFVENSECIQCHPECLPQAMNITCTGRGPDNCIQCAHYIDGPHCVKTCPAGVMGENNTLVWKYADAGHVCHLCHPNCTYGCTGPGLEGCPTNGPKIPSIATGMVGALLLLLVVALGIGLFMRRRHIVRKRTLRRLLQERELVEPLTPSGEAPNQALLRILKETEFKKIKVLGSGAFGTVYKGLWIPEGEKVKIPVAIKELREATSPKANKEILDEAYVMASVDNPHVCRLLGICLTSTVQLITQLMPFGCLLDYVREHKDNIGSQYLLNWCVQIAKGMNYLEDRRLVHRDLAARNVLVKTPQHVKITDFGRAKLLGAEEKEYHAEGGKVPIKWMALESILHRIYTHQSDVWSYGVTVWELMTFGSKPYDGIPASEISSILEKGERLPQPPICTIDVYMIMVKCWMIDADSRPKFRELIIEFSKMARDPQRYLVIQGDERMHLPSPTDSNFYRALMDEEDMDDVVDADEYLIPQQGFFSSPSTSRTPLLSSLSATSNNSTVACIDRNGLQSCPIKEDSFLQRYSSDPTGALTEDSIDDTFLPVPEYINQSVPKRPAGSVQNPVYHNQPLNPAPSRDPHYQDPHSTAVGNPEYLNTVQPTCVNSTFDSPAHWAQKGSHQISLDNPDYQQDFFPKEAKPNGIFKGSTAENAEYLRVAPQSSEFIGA
Ba/F3 EGFR-Del19/T790M, sequence (P00533 with tags, fused parts or gaps DEL746-750/T790M, form open): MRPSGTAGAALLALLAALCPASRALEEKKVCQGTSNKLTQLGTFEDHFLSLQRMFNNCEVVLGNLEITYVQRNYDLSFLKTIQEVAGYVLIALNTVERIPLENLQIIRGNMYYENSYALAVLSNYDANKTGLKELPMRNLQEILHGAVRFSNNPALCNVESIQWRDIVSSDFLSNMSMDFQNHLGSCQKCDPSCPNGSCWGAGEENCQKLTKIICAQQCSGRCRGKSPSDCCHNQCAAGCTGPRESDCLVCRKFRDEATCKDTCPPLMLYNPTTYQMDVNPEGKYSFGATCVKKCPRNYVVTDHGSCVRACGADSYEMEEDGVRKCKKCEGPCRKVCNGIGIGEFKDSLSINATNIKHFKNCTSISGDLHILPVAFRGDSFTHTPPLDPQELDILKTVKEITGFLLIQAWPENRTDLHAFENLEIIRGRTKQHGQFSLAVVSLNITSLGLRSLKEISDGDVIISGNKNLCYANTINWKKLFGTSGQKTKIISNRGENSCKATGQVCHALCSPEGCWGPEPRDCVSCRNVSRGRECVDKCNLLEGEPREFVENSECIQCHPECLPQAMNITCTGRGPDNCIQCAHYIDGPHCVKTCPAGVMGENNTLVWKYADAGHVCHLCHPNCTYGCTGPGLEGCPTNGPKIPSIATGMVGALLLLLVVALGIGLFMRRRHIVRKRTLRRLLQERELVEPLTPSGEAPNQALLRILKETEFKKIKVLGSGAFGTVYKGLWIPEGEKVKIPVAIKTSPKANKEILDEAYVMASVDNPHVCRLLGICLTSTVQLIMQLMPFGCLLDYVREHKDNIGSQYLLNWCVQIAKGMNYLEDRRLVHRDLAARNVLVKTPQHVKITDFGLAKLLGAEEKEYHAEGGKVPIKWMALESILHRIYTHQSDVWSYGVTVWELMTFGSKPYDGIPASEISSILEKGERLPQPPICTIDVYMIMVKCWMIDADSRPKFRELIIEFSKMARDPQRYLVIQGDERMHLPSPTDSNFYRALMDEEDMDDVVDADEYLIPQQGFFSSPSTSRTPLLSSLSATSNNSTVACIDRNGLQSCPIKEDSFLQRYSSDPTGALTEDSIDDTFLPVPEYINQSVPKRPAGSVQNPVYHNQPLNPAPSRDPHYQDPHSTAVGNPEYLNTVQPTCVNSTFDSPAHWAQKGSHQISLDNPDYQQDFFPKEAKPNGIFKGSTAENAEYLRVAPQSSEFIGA
EGFR^L858R/T790M, sequence (P00533 25-1210 T790M/L858R): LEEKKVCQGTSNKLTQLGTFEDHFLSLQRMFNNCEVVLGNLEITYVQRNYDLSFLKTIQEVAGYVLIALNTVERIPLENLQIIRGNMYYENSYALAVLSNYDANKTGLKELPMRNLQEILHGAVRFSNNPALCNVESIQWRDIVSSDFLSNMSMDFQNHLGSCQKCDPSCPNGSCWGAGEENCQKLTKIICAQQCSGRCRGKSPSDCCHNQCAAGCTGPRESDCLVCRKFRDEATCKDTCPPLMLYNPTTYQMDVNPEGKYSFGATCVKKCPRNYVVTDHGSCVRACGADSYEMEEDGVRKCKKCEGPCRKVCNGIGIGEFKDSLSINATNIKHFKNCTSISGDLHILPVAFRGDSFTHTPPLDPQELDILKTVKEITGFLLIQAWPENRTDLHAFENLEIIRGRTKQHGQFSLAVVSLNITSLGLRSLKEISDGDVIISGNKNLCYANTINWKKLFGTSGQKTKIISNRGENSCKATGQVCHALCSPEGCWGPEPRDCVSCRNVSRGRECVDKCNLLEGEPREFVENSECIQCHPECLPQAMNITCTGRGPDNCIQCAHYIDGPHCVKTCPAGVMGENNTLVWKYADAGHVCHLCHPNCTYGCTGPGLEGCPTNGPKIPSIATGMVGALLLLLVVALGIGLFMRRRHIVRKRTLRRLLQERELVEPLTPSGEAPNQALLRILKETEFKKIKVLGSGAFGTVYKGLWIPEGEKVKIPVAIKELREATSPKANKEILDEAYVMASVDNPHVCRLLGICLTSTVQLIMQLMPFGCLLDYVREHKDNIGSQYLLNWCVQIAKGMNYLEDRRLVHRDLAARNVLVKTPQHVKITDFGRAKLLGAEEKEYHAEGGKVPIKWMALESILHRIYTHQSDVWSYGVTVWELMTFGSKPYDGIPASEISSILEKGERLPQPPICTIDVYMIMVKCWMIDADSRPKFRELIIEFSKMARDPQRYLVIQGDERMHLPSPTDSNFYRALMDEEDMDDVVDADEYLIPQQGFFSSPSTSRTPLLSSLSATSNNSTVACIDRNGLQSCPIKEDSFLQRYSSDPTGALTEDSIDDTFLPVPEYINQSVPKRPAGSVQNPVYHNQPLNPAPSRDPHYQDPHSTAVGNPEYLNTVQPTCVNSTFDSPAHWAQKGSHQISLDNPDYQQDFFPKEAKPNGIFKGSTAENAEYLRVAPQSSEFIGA

Compound	GI50 (Ba/F3 EGFR-Del19/T790M)	IC50 (EGFR^L858R/T790M)	IC50 (EGFR^L858R/T790M/C797S)	GI50 [1]	GI50 (Ba/F3 EGFR-Del19/C797S)	IC50 (EGFRL858R)	ring closure, isolated yield ([2]; from Cc1cc(C(=O)O)cc(-c2cnn(C)c2CCC[C@@H](C)Cn2c(N)nc3ccc(Br)cc32)n1, 14-membered ring, DCM, 5.05 mM)	ring closure, yield of all isomers ([3]; from Cc1cc(C(=O)O)cc(-c2cnn(C)c2CCCC[C@@H](C)Cn2c(N)nc3ccc(Br)cc32)n1, TEA, DCM, 2.75 mM, 2.0 h)	ring closure, isolated yield ([2]; from Cc1cc(C(=O)O)cc(-c2cnn(C)c2CCCC[C@@H](C)Cn2c(N)nc3ccc(Br)cc32)n1, 15-membered ring, DCM, 2.75 mM)	ring closure, yield of all isomers ([3]; from Cc1cc(C(=O)O)cc(-c2cnn(C)c2N2CC(OCCn3c(N)nc4ccc(Br)cc43)C2)n1, TEA, DCM, 3.99 mM, 1.0 h)	ring closure, isolated yield ([2]; from Cc1cc(C(=O)O)cc(-c2cnn(C)c2N2CC(OCCn3c(N)nc4ccc(Br)cc43)C2)n1, 15-membered ring, DCM, 3.99 mM)	ring closure, yield of all isomers ([3]; from Cc1cc(C(=O)O)cc(-c2cnn(C)c2CCCO[C@@H](C)Cn2c(N)nc3ccc(Br)cc32)n1, Et3N, DMF, 190.0 mM, 0.5 h)	ring closure, isolated yield ([2]; from Cc1cc(C(=O)O)cc(-c2cnn(C)c2CCCO[C@@H](C)Cn2c(N)nc3ccc(Br)cc32)n1, 15-membered ring, DMF, 190.0 mM)
Cc1ccc(-c2ccc3c(c2)N2C[C@H](C)CCCc4c(cnn4C)-c4cc(cc(C)n4)C(=O)/N=C/2N3)cn1 [Compound (10), (10R,20E)-5,10,25-trimethyl-15-(6-methyl-3-pyridyl)-4,5,12,19,21,26-hexazapentacyclo[21.3.1.02,6.012,20.013,18]heptacosa-1(27),2(6),3,13(18),14,16,20,23,25-nonaen-22-one]	< 50 nM	< 50 nM	< 50 nM	< 50 nM	< 50 nM	< 50 nM							
Cc1cc2cc(n1)-c1cnn(C)c1CCC[C@@H](C)CN1/C(=N/C2=O)Nc2ccc(OC3CCNCC3)cc21 [(15)]	< 50 nM	< 50 nM	< 50 nM	< 50 nM	< 50 nM	< 50 nM							
Cc1cc2cc(n1)-c1cnn(C)c1CCC[C@@H](C)CN1/C(=N/C2=O)Nc2ccc(Br)cc21							60.5%						
Cc1cc2cc(n1)-c1cnn(C)c1CCCCCN1/C(=N/C2=O)Nc2ccc(CN3CCN(C)CC3)cc21 [(69)]	< 50 nM	< 50 nM	< 50 nM	< 50 nM	< 50 nM	< 50 nM							
Cc1cc2cc(n1)-c1cnn(C)c1CCCC[C@@H](C)Cn1c(nc3ccc(Br)cc31)NC2=O								72.7%	72.7%				
Cc1cc2cc(n1)-c1cnn(C)c1N1CC(C1)OCCN1/C(=N/C2=O)Nc2ccc(Br)cc21										60.3%	60.3%		
Cc1cc2cc(n1)-c1cnn(C)c1CCC[C@@H](C)CN1/C(=N/C2=O)Nc2c(C)cc(N3CCN(C)CC3)cc21 [(2)]	< 50 nM	< 50 nM	< 50 nM	< 50 nM	50 to 100 nM	< 50 nM							
Cc1cc2cc(n1)-c1cnn(C)c1CCC[C@@H](C)CN1/C(=N/C2=O)Nc2ccc(CN3CCN(CCF)CC3)cc21 [(25)]	< 50 nM	< 50 nM	< 50 nM	< 50 nM	< 50 nM	< 50 nM							
Cc1cc2cc(n1)-c1cnn(C)c1CCCO[C@@H](C)CN1/C(=N/C2=O)Nc2ccc(Br)cc21												28.8%	28.8%
Cc1cc2cc(n1)-c1cnn(C)c1-c1cccc(c1)C(C)CN1/C(=N/C2=O)Nc2ccc(C(=O)N3CCN(C)CC3)cc21 (stereo not shown) [(57)]	≥ 1000 nM	< 50 nM	< 50 nM	100 to 1000 nM	100 to 1000 nM	100 to 1000 nM							
Cc1cc2cc(n1)-c1cnn(C)c1CCC[C@@H](C)CN1/C(=N/C2=O)Nc2ccc(N3CCN(C(C)C)CC3)cc21 [(28)]	< 50 nM	< 50 nM	< 50 nM	< 50 nM	< 50 nM	< 50 nM							
Cc1cc2cc(n1)-c1cnn(C)c1CCCO[C@@H](C)CN1/C(=N/C2=O)Nc2ccc(CN3CCN(C)CC3)cc21 [Compound (55), (11S,21E)-5,11,26-trimethyl-16-[(4-methylpiperazin-1-yl)methyl]-10-oxa-4,5,13,20,22,27-hexazapentacyclo[22.3.1.02,6.013,21.014,19]octacosa-1(28),2(6),3,14(19),15,17,21,24,26-nonaen-23-one]	100 to 1000 nM	< 50 nM	< 50 nM	50 to 100 nM	100 to 1000 nM	100 to 1000 nM							
